One assay addresses T1, human α1b receptor (Homo sapiens, UniProt P35368).
T1 construct: The entire coding region of α1b (1563 bp); expressed in transfected cells
T1 sequence (P35368 1-520): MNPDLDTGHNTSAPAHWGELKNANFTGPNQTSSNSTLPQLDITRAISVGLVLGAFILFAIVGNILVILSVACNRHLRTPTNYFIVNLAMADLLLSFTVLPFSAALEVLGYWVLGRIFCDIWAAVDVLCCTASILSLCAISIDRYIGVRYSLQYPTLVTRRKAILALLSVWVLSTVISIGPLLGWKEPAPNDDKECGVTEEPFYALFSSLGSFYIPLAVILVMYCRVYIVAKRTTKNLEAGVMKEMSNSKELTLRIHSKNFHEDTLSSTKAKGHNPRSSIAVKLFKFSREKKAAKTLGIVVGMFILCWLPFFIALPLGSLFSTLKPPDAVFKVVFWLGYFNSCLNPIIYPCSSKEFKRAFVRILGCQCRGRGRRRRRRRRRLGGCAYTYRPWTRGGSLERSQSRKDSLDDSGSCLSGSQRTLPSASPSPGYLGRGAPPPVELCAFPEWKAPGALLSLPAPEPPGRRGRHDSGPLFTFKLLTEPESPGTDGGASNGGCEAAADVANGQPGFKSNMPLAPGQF
The assay is described as follows: Radioligand binding ([3H]prazosin) at cloned human α1b receptor. The conditions noted are these: membranes of transfected LM(tk−) cells, [3H]prazosin 0.5 nM; read-out: Binding affinity hα1b. The procedure: (§1) The activity of compounds at the different human receptors was determined in vitro using cultured cell lines that selectively express the receptor of interest. These cell lines were prepared by transfecting the cloned cDNA or cloned genomic DNA or constructs containing both genomic DNA and cDNA encoding the human α-adrenergic receptors as follows:
α1b Human Adrenergic Receptor
The entire coding region of α1b (1563 bp), including 200 base pairs and 5′ untranslated sequence (5′ UT) and 600 bp of 3′ untranslated sequence (3′ UT), was cloned into the EcoRI site of pCEXV-3 eukaryotic expression vector.
The construct involved ligating the full-length containing EcoRI brainstem cDNA fragment from λ ZapII into the expression vector. Stable cell lines were selected as described above. The cell line used herein was designated L-α1B and was deposited with the American Type Culture Collection, 12301 Parklawn Drive, Rockville, Md. 20852, U.S.A. under the provisions of the Budapest Treaty for the International Recognition of the Deposit of Microorganisms for the Purposes of Patent Procedure. The cell line L-α1B was accorded ATCC Accession No. CR 11139, on Sep. 29, 1992.
(§2) Radioligand Binding Assays for α1 Receptors
(§3) Transfected cells from culture flasks were scraped into 5 ml of 5 mM Tris-HCl, 5 mM EDTA, pH 7.5, and lysed by sonication. The cell lysates were centrifuged at 1000 rpm for 5 min at 4° C., and the supernatant was centrifuged at 30,000×g for 20 min at 4° C. The pellet was suspended in 50 mM Tris-HCl, 1 mM MgCl2, and 0.1% ascorbic acid at pH 7.5. Binding of the α1 antagonist [^3H]prazosin (0.5 nM, specific activity 76.2 Ci/mmol) to membrane preparations of LM(tk−) cells was done in a final volume of 0.25 ml and incubated at 37° C. for 20 min. Nonspecific binding was determined in the presence of 10 μM phentolamine. The reaction was stopped by filtration through GF/B filters using a cell harvester. Inhibition experiments, routinely consisting of 7 concentrations of the tested compounds, were analyzed using a non-linear regression curve-fitting computer program to obtain Ki values.

A further assay deals with T2, human α1d receptor (Homo sapiens, UniProt P25100).
T2 construct: expressed in transfected cells
T2 sequence (P25100 1-572): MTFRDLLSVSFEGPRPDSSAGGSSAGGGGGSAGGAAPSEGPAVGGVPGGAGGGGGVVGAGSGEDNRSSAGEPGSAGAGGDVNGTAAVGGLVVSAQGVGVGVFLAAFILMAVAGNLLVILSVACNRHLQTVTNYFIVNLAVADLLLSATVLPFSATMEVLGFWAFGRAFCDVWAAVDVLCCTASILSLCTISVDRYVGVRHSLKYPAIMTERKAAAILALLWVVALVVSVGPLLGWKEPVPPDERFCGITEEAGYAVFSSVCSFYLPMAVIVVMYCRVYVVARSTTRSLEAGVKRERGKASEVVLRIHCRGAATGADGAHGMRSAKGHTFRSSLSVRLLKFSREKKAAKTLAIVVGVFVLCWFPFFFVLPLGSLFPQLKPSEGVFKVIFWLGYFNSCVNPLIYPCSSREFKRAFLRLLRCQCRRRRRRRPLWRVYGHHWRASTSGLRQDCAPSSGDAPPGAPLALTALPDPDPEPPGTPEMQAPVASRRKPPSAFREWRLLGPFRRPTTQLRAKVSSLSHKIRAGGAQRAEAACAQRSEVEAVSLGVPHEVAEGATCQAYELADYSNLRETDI
The assay is described as follows: Radioligand binding ([3H]prazosin) at cloned human α1d receptor. The settings on record: second column headed hα1a (c3); membranes of transfected LM(tk−) cells, [3H]prazosin 0.5 nM; read-out: Binding affinity hα1a. The procedure: as §1
α1d Human Adrenergic Receptor
The entire coding region of α1d (1719 bp), including 150 base pairs of 5′ untranslated sequence (5′ UT) and 300 bp of 3′ untranslated sequence (3′ UT), was cloned into the BamHI and ClaI sites of the polylinker-modified eukaryotic expression vector pCEXV-3, called EXJ.HR. The construct involved the ligation of partial overlapping human lymphocyte genomic and hippocampal cDNA clones: 5′ sequence were contained on a 1.2 kb SmaI-XhoI genomic fragment (the vector-derived BamHI site was used for subcloning instead of the internal ninsert-derived SmaI site) and 3′ sequences were contained on an 1.3 kb XhoI-ClaI cDNA fragment (the ClaI site was from the vector polylinker). Stable cell lines were obtained by cotransfection with the plasmid α1A/EXJ (expression vector containing the α1a receptor gene (old nomenclature)) and the plasmid pGCcos3neo (plasmid containing the aminoglycoside transferase gene) into LM(tk−) cells using calcium phosphate technique. The cells were grown, in a controlled environment (37° C., 5% CO2), as monolayers in Dulbecco's modified Eagle's Medium (GIBCO, Grand Island, N.Y.) containing 25 mM glucose and supplemented with 10% bovine calf serum, 100 units/ml penicillin g, and 100 μg/ml streptomycin sulfate. Stable clones were then selected for resistance to the antibiotic G-418 (1 mg/ml), and membranes were harvested and assayed for their ability to bind [^3H]prazosin as described below (see “Radioligand Binding assays”).
The cell line expressing the human α1d receptor used herein was designated L-α1A (old nomenclature) and was deposited with the American Type Culture Collection, 12301 Parklawn Drive, Rockville, Md. 20852, U.S.A. under the provisions of the Budapest Treaty for the International Recognition of the Deposit of Microorganisms for the Purposes of Patent Procedure. The cell line expressing the human α1d receptor, was accorded ATCC Accession No. CRL 11138, and was deposited on Sep. 25, 1992.
as §2, §3

Where a name gives a salt, the structure may show the parent alone.

The text below walks through data of patent publication US6680323B2, “Dihydropyrimidines and uses thereof” (Synaptic Pharmaceutical Corporation, priority 1998, dated 2004).

On to `COCC1=C(C(=O)OC)[C@H](c2ccc(F)c(F)c2)N(C(=O)NCCCO)C(=O)N1` [Compound 1, (+)-1,2,3,6-Tetrahydro-1-(3-hydroxypropyl)carboxamido-5-methoxycarbonyl-4-methoxymethyl-6-(3,4-difluorophenyl)-2-oxo-pyrimidine], for which the Ki at human α1b receptor and on human α1d receptor was greater than 50 µM throughout.
Turning to `COCC1=C(C(=O)OC)[C@H](c2ccc(F)c(F)c2)N(C(=O)NCCC[n+]2ccc(-c3ccccn3)cc2)C(=O)N1` [Compound 3, 4-(2-Pyridyl)-1-{3-[5-carboxymethyl-4-methoxymethyl-2-oxo-6(S)-(3,4-difluorphenyl)-1,2,3,6-tetrahydropyrimidin-1-yl]carboxyaminopropyl}pyridinium chloride], the Ki at human α1b receptor was greater than 2 µM; on human α1d receptor, greater than 5 µM.
On to `O=C(O)CCNC(=O)N1C(=O)NC2=C(C(=O)OC2)[C@@H]1c1ccc(F)c(F)c1` [Compound 9], for which the Ki at human α1b receptor was greater than 2 µM; on human α1d receptor it was greater than 5 µM.
As for `COC(=O)C1=C(CO)NC(=O)N(C(=O)NCCCN2CCC(c3ccccn3)CC2)[C@H]1c1ccc(F)c(F)c1` [Compound 7, (+)-1,2,3,6-Tetrahydro-1-{N-[4-(2-pyridyl)piperidin-1-yl]propyl}carboxamido-5-methoxycarbonyl-4-hydroxymethyl-6-(3,4-difluorophenyl)-2-oxopyrimidine], the figures for the Ki on human α1b receptor and on human α1d receptor were 0.53 µM and 1.2 µM, respectively.
On to `COCC1=C(C(=O)OC)[C@H](c2ccc(F)c(F)c2)N(C(=O)NCCCN2CCC(c3cccc[n+]3[O-])CC2)C(=O)N1` [Compound 2, (+)-1,2,3,6-Tetrahydro-1-{N-[4-(2-pyridyl)piperidin-1-yl]propyl}carboxamido-5-methoxycarbonyl-4-methoxymethyl-6-(3,4-difluorophenyl)-2-oxopyrimidine-pyridine-N-oxide hydrochloride], for which the Ki on human α1b receptor was found to be 1.5 µM; on human α1d receptor, 3.7 µM.
Turning to `O=C1OCC2=C1C(c1ccc(F)c(F)c1)N(C(=O)NCCCN1CCC(c3ccccn3)CC1)C(=O)N2` (single isomer, unassigned; (+)) [Compound 8, (+)-1-3-{[4-(3,4-Difluorophenyl)-2,5-dioxo-1,2,5,7-tetrahydro-4H-furo[3,4-d]-pyrimidine-3-carbonyl]amino}-propyl-4-(2-pyridyl)-piperidine], the Ki is 1.6 µM on human α1b receptor and 1.97 µM on human α1d receptor.
